Experimental data from patent US9255094B2, “Pyrido[4,3-B]indoles and methods of use” (Medivation Technologies, Inc., priority 2009, dated 2016).

What was measured:
[1] = molecular target: T1, human recombinant adrenergic α2A receptor (Homo sapiens, UniProt P08913); assay: Adrenergic α2A radioligand binding assay ([3H]MK-912); settings: 1 nM [3H]MK-912, insect Sf9 cells; for inhibition at 0.1 µM: compound at 0.1 μM, read-out: Percent Inhibition of ligand binding, Adrenergic (0.1 μM) a2A; for inhibition at 1 µM: compound at 1 μM, read-out: Percent Inhibition of ligand binding, Adrenergic (1 μM) a2A
T1 construct: expressed in transfected cells; host or cells: insect Sf9 cells
T1 sequence (P08913 1-465): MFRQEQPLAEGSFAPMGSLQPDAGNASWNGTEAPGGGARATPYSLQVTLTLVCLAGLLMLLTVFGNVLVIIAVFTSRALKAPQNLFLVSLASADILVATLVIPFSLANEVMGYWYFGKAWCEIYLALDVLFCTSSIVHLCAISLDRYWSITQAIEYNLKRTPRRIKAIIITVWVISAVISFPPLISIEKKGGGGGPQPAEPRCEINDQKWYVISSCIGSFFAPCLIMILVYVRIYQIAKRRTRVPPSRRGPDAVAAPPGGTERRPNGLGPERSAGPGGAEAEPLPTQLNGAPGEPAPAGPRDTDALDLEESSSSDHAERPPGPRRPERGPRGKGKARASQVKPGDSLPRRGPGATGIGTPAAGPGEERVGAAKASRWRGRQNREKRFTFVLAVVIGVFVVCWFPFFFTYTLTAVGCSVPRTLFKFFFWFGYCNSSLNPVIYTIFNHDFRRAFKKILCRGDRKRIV
Description: To evaluate in radioligand binding assays the activity of compounds of the invention, human recombinant adrenergic α2A receptor expressed in insect Sf9 cells (Uhlen S et al. J. Pharmacol. Exp. Ther. 271:1558, 1994) in a modified Tris-HCl buffer (50 mM Tris-HCl, pH 7.4, 12.5 mM MgCl2, 2 mM EDTA) was used. Compounds of invention were incubated with 1 nM [^3H]MK-912 for 60 min at 25° C. MK912 is (2S-trans)-1,3,4,5′,6,6′,7,12b-octahydro-1′,3′-dimethyl-spiro[2H-benzofuro[2,3-a]quinolizine-2,4′(1′H)-pyrimidin]-2′(3′H)-one hydrochloride Non-specific binding was estimated in the presence of 10 μM WB-4101 (2-(2,6-dimethoxyphenoxyethyl)aminomethyl-1,4-benzodioxane hydrochloride). Receptor proteins were filtered and washed, the filters were then counted to determine [^3H]MK-912 specifically bound.

[2] = molecular target: T2, human recombinant adrenergic α1D receptor (Homo sapiens, UniProt P25100); assay: Adrenergic α1D radioligand binding assay ([3H]Prozosin); settings: 0.6 nM [3H]Prozosin, HEK-293 cells; for inhibition at 0.1 µM: compound at 0.1 μM, read-out: Percent Inhibition of ligand binding, Adrenergic (0.1 μM) a1D; for inhibition at 1 µM: compound at 1 μM, read-out: Percent Inhibition of ligand binding, Adrenergic (1 μM) a1D
T2 construct: expressed in transfected cells; host or cells: human embryonic kidney (HEK-293) cells
T2 sequence (P25100 1-572): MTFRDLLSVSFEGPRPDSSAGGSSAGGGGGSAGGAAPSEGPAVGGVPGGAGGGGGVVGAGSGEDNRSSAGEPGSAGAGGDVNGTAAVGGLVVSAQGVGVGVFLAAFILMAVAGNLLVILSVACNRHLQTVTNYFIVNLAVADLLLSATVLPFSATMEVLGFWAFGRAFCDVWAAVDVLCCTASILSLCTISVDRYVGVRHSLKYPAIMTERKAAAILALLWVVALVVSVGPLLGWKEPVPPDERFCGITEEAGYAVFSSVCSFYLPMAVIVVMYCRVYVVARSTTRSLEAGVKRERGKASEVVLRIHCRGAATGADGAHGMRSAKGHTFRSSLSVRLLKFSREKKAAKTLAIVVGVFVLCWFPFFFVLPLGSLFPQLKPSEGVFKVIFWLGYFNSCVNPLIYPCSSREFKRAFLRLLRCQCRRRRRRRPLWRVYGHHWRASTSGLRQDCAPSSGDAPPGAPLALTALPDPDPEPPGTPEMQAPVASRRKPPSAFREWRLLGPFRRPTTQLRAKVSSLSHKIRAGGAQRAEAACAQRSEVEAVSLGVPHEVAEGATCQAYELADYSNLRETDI
Description: Compounds of invention were incubated with 0.6 nM [^3H]Prozosin for 60 min at 25° C. Non-specific binding was estimated in the presence of 10 μM phentolamine Receptor proteins were filtered and washed, the filters were then counted to determine [^3H]Prozosin specifically bound.

[3] = molecular target: human recombinant histamine H1 receptor (Homo sapiens, UniProt P35367); assay: Histamine H1 radioligand binding assay ([3H]Pyrilamine); settings: receptor expressed in CHO cells; for inhibition at 1 µM: compound at 1 μM; for inhibition at 0.1 µM: compound at 0.1 μM
Sequence of human recombinant histamine H1 receptor (P35367 whole entry): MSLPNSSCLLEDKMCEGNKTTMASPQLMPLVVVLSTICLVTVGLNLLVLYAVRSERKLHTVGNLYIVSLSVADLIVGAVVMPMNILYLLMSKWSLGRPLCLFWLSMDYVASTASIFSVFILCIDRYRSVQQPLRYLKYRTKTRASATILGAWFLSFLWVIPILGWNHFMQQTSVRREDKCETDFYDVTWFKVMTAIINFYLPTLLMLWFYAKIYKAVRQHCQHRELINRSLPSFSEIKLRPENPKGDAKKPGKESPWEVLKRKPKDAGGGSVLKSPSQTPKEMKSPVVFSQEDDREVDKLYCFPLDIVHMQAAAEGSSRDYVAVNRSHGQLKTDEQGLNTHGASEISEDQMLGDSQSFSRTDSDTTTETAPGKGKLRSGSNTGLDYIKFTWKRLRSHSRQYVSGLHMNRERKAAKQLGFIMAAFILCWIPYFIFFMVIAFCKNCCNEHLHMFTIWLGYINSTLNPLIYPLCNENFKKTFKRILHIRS
Method in brief: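 Membranes from CHO cells expressing the receptor, in 50 mM Tris-HCl pH 7.4 with 2 mM MgCl2, 100 mM NaCl and 250 mM sucrose, incubated with 1.2 nM [3H]pyrilamine for 180 min at 25° C; nonspecific binding defined with 1 μM pyrilamine.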

| Compound | inhibition at 0.1 µM [1] [%] | inhibition at 0.1 µM [2] [%] | inhibition at 1 µM [3] [%] | inhibition at 1 µM [1] [%] | inhibition at 1 µM [2] [%] | inhibition at 0.1 µM [3] [%] |
| --- | --- | --- | --- | --- | --- | --- |
| Cc1ccc2c(c1)c1c(n2CC(O)c2ccncc2)CCN(C)C1 (centres unmarked) [Compound 1-8, 2-(2,8-dimethyl-3,4-dihydro-1H-pyrido[4,3-b]indol-5(2H)-yl)-1-(pyridin-4-yl)ethanol] | 37 |  |  |  |  |  |
| CN1CCc2c(c3cc(Cl)ccc3n2CC(O)c2ccncc2)C1 (centres unmarked) [Compound 1-11, 2-(8-chloro-2-methyl-3,4-dihydro-1H-pyrido[4,3-b]indol-5(2H)-yl)-1-(pyridin-4-yl)ethanol] | 41 |  |  |  |  |  |
| Cc1ccc2c(c1)c1c(n2CC(C)(O)c2ccc(O)cc2)CCN(C)C1 (centres unmarked) [Compound 1-15, 4-(1-(2,8-dimethyl-3,4-dihydro-1H-pyrido[4,3-b]indol-5(2H)-yl)-2-hydroxypropan-2-yl)phenol] | 32 |  |  |  |  |  |
| CN1CCc2c(c3cc(Cl)c(Cl)cc3n2CC(C)(O)c2ccncc2)C1 (centres unmarked) [Compound 1-17, 1-(7,8-dichloro-2-methyl-3,4-dihydro-1H-pyrido[4,3-b]indol-5(2H)-yl)-2-(pyridin-4-yl)propan-2-ol] | 64 |  |  |  |  |  |
| COc1ccc([C@](C)(O)Cn2c3c(c4cc(C)ccc42)CN(C)CC3)cc1 [Compound 1-20, (S)-1-(2,8-Dimethyl-3,4-dihydro-1H-pyrido[4,3-b]indol-5(2H)-yl)-2-(4-methoxyphenyl)propan-2-ol] | 57 | 22 |  |  |  |  |
| Cc1ccc2c(c1)c1c(n2CCc2ccc(C)nc2)CCN(CCC#N)C1 [Compound 1-34, 3-(8-methyl-5-(2-(6-methylpyridin-3-yl)ethyl)-3,4-dihydro-1H-pyrido[4,3-b]indol-2(5H)-yl)propanenitrile] |  |  | 65 | 3 | 6 |  |
| Cc1ccc2c(c1)c1c(n2CC(=O)c2ccccc2)CCN(C)C1 [Compound 1-35, 2-(2,8-dimethyl-3,4-dihydro-1H-pyrido[4,3-b]indol-5(2H)-yl)-1-phenylethanone] |  |  | 52 | 19 | 18 |  |
| CN1CCc2c(c3cc(Cl)ccc3n2CC(=O)c2ccccc2)C1 [Compound 1-36, 2-(8-chloro-2-methyl-3,4-dihydro-1H-pyrido[4,3-b]indol-5(2H)-yl)-1-phenylethanone] |  |  | 84 | 43 | 52 |  |
| CN1CCc2c(c3cc(Cl)ccc3n2CC(=O)c2ccc(F)cc2)C1 [Compound 1-37, 2-(8-chloro-2-methyl-3,4-dihydro-1H-pyrido[4,3-b]indol-5(2H)-yl)-1-(4-fluorophenyl)ethanone] |  |  | 83 | 87 | 56 |  |
| CN1CCc2c(c3cc(Cl)ccc3n2CC(=O)c2ccc(Cl)cc2)C1 [Compound 1-38, 2-(8-chloro-2-methyl-3,4-dihydro-1H-pyrido[4,3-b]indol-5(2H)-yl)-1-(4-chlorophenyl)ethanone] |  |  | 91 | 90 | 56 |  |
| Cc1ccc2c(c1)c1c(n2CC(=O)c2ccc(F)cc2)CCN(C)C1 [Compound 1-39, 2-(2,8-dimethyl-3,4-dihydro-1H-pyrido[4,3-b]indol-5(2H)-yl)-1-(4-fluorophenyl)ethanone] |  |  | 86 | 88 | 57 |  |
| Cc1ccc2c(c1)c1c(n2CCc2ccc(CCCN)nc2)CCN(C)C1 [Compound 1-40, 3-(5-(2-(2,8-dimethyl-3,4-dihydro-1H-pyrido[4,3-b]indol-5(2H)-yl)ethyl)pyridin-2-yl)propan-1-amine] |  |  | 81 | 31 | 53 |  |
| Cc1ccc2c(c1)c1c(n2CCc2ccc(C(F)(F)F)nc2)CCNC1 [Compound 1-41, 8-methyl-5-(2-(6-(trifluoromethyl)pyridin-3-yl)ethyl)-2,3,4,5-tetrahydro-1H-pyrido[4,3-b]indole] |  |  | 72 | 58 | 74 |  |
| Cc1ccc2c(c1)c1c(n2CCc2ccc(C)nc2)CCN(CCCO)C1 [Compound 1-42, 3-(8-methyl-5-(2-(6-methylpyridin-3-yl)ethyl)-3,4-dihydro-1H-pyrido[4,3-b]indole-2(5H)-yl)propan-1-ol] |  |  | 93 | 35 | 55 |  |
| Cc1ccc2c(c1)c1c(n2CC(C)c2ccncc2)CCN(C)C1 (centres unmarked) [Compound 1-46, 2,8-dimethyl-5-(2-(pyridin-4-yl)propyl)-2,3,4,5-tetrahydro-1H-pyrido[4,3-b]indole] |  |  | 90 |  |  |  |
| Cc1ccc2c(c1)c1c(n2CC(C)(C)c2ccncc2)CCN(C)C1 [Compound 1-49, 2,8-dimethyl-5-(2-methyl-2-(pyridin-4-yl)propyl)-2,3,4,5-tetrahydro-1H-pyrido[4,3-b]indole] |  |  | 94 |  |  |  |
| CC[C@](O)(Cn1c2c(c3cc(C)ccc31)CN(C)CC2)c1ccc(F)cc1 [Compound 1-60, (R)-1-(2,8-Dimethyl-3,4-dihydro-1H-pyrido[4,3-b]indol-5(2H)-yl)-2-(4-fluorophenyl)butan-2-ol] | 3 | 13 |  |  |  | 10 |
| CCCC[C@](O)(Cn1c2c(c3cc(Cl)ccc31)CN(C)CC2)c1ccc(F)cc1 [Compound 1-61, (R)-1-(8-Chloro-2-methyl-3,4-dihydro-1H-pyrido[4,3-b]indol-5(2H)-yl)-2-(4-fluorophenyl)hexan-2-ol] | -7 | 14 |  |  |  | -7 |
| CC[C@@](O)(Cn1c2c(c3cc(C)ccc31)CN(C)CC2)c1ccncc1 [Compound 1-62, (S)-1-(2,8-Dimethyl-3,4-dihydro-1H-pyrido[4,3-b]indol-5(2H)-yl)-2-(pyridine-4-yl)butan-2-ol] | 10 | 6 |  |  |  | 3 |
| CC[C@](O)(Cn1c2c(c3cc(C)ccc31)CN(C)CC2)c1ccncc1 [Compound 1-63, (R)-1-(2,8-Dimethyl-3,4-dihydro-1H-pyrido[4,3-b]indol-5(2H)-yl)-2-(pyridine-4-yl)butan-2-ol] | 12 | -13 |  |  |  | 18 |
| CC[C@@](O)(Cn1c2c(c3cc(C)ccc31)CN(C)CC2)c1ccc(F)cc1 [Compound 1-66, (S)-1-(2,8-dimethyl-3,4-dihydro-1H-pyrido[4,3-b]indol-5(2H)-yl)-2-(4-fluorophenyl)butan-2-ol] | 29 |  |  |  |  | -12 |
| CCCC[C@@](O)(Cn1c2c(c3cc(Cl)ccc31)CN(C)CC2)c1ccc(F)cc1 [Compound 1-67, (S)-1-(8-chloro-2-methyl-3,4-dihydro-1H-pyrido[4,3-b]indol-5(2H)-yl)-2-(4-fluorophenyl)hexan-2-ol] |  |  |  |  |  | -2 |
